Measurements: patent publication US6375926B1, “Labelled elastase inhibitors” (Amersham International PLC, priority 1996, dated 2002)

Legend:
[1] = tested on: E. coli infected rats (experimental abscess); experiment: In vivo biodistribution in rats bearing experimental abscesses, direct intravenous injection; parameters: species or system male Wistar rats; conditions: directly injected i.v., 24 hrs post injection
Description: The model: into the right gracilis (thigh) muscle of male Wistar rats (250-325 g) were injected 1 ml/kg of an E. coli suspension containing >> 5×10^8/ml organisms.
Validation: the model was validated for use in the development of diagnostic imaging agents of infection/inflammation by the intravenous injection of ^99mTc-HMPAO ex-vivo labelled human wbc or ^67Ga-citrate when the abscesses were 24 hours old. Animals were dissected between 4 and 24 hours after injection. ^99mTc-labelled red blood cells were used as a negative control.
The animals were sacrificed at either 4 or 24 hours post injection and relevant tissues dissected.

[2] = tested on: E. coli infected rats (experimental abscess); experiment: as above; parameters: species or system male Wistar rats; conditions: 48 hrs

With O=C([O-])CC(O)(CC(=O)[O-])C(=O)[O-].[67Ga+3] [^67Ga-citrate, ^67Ga citrate, reference compound] the “Relative conc. In infected area” value ([1]; % injected dose in a % body weight) was 0.9, the Infected/normal ([1]; ratio of % id/g infected area to contralateral thigh) was 2.2 and the Infected/blood ([1]; ratio of %/g infected area to blood) was 3.9. For the same molecule, the Infected/blood [2] was 9.7, the Infected/normal [2] was 3.9 and the “Relative conc. In infected area” value [2] was 1.1.
